Measured values from patent publication US20110071197A1, “BIS-ARYL COMPOUNDS FOR USE AS MEDICAMENTS” (priority 2008, published 2011).

Each compound was assayed against T1, Recombinant human LTC4 synthase (Homo sapiens, UniProt Q16873) (assay: LTC4 synthase in vitro assay (HTRF detection of LTC4)). Settings: compound concentration 3 μM; HTRF method.
T1 construct: made in house; host or cells: Pichia pastoris
T1 sequence (Q16873 1-150): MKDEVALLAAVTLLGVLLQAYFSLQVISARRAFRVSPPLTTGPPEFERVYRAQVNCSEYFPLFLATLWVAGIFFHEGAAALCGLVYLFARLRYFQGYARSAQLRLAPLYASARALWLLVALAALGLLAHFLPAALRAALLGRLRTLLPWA
Type: biochemical
Procedure, shortened: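 Pichia-expressed recombinant human LTC4 synthase at 0.5 μg/ml total protein in PBS pH 7.4 with 5 mM GSH, preincubated 10 min at RT with inhibitor (10 μM final). LTA4 (2.5 μM final) was then added for 5 min at RT. LTC4 formed was read by HTRF.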

| Compound | inhibition at 3 µM [%] |
| --- | --- |
| CCCCOc1ccc(S(=O)(=O)NC(=O)Cc2cccc(Oc3ccc(Nc4ccc(Cl)cc4)c(C(=O)O)c3)c2)cc1 [26:1, 5-{3-[2-(4-Butoxybenzenesulfonyl-amino)-2-oxoethyl]phenoxy}-2-(4-chlorophenylamino)benzoic acid] | 94 |

Same assay, conditions: total concentration of title compound in the assay 10 μM; HTRF method

| Compound | inhibition at 10 µM [%] | % inh. [%] |
| --- | --- | --- |
| CCCCN(c1ccc(Oc2ccc(Nc3ccc(F)c(F)c3)c(C(=O)O)c2)cc1)c1ccc(F)c(F)c1 [24:1, 5-{4-[n-Butyl-(3,4-difluorophenyl)-amino]phenoxy}-2-(3,4-difluoro-phenylamino)benzoic acid] | 93 | – |
| CCCCN(c1ccc(Oc2ccc(Nc3ccc(Cl)cc3)c(C(=O)O)c2)cc1)c1ccc(F)c(F)c1 [24:2] | – | 95 |
| O=C(Nc1ccc(C(F)(F)F)cc1)Nc1ccc(Oc2ccc(S(=O)(=O)Nc3ccc(Cl)cc3)cc2)cc1C(=O)O [25:1, 5-[4-(4-Chlorophenylsulfamoyl)-phenoxy]-2-[3-(4-trifluoromethyl-phenyl)ureido]benzoic acid] | 98 | – |
| CCCCOc1ccc(S(=O)(=O)Nc2ccc(Oc3ccc(S(=O)(=O)Nc4ccc(Cl)cc4)cc3)cc2C(=O)O)cc1 [25:2, 2-(4-Butoxy-benzenesulfonyl-amino)-5-[4-(4-chlorophenylsulfamoyl)phenoxy]benzoic acid] | 100 | – |
| CCCCOc1ccc(S(=O)(=O)Nc2ccc(Oc3ccc(S(=O)(=O)Nc4ccc(F)c(F)c4)cc3)cc2C(=O)O)cc1 [25:3, 2-(4-Butoxybenzenesulfonyl-amino)-5-[4-(3,4-difluorophenyl-sulfamoyl)phenoxy]benzoic acid] | 100 | – |
| O=C(Nc1ccc(Oc2ccc(S(=O)(=O)Nc3ccc(F)c(F)c3)cc2)cc1C(=O)O)c1ccc(Cl)cc1Cl [25:4, 2-(2,4-Dichlorobenzoylamino)-5-[4-(3,4-difluorophenylsulfamoyl)-phenoxy]benzoic acid] | 100 | – |
| O=C(O)c1cc(Oc2ccc(S(=O)(=O)Nc3ccc(F)c(F)c3)cc2)ccc1NC(=O)c1cccc(Cl)c1Cl [25:5, 2-(2,3-Dichlorobenzoylamino)-5-[4-(3,4-difluorophenylsulfamoyl)-phenoxy]benzoic acid] | 100 | – |
| CC(C)Oc1ccc(C(=O)Nc2ccc(Oc3ccc(S(=O)(=O)Nc4ccc(F)c(F)c4)cc3)cc2C(=O)O)cc1 [25:6, 5-[4-(3,4-Difluoro-phenylsulfamoyl)-phenoxy]-2-(4-isopropoxybenzoyl-amino)benzoic acid] | 100 | – |
| CCCCOc1ccc(S(=O)(=O)Nc2ccc(Oc3cccc(CC(=O)NS(=O)(=O)c4ccc(F)c(F)c4)c3)cc2C(=O)OC(C)(C)C)cc1 [26:3] | – | 95 |
| CCCCOc1ccc(S(=O)(=O)Nc2ccc(Oc3cccc(CC(=O)NS(=O)(=O)c4ccc(F)c(F)c4)c3)cc2C(=O)O)cc1 [26:4, 2-(4-Butoxybenzenesulfonylamino)-5-{3-[2-(3,4-difluorobenzenesulfonyl-amino)-2-oxoethyl]phenoxy}benzoic acid] | 95 | – |
| CCCCOc1ccc(S(=O)(=O)Nc2ccc(Oc3cccc(CC(=O)NS(=O)(=O)c4cccc(Cl)c4F)c3)cc2C(=O)O)cc1 [26:5, 2-(4-Butoxybenzenesulfonylamino)-5-{3-[2-(3-chloro-2-fluorobenzene-sulfonylamino)-2-oxoethyl]phenoxy}-benzoic acid] | 99 | – |
| CCCCOc1ccc(S(=O)(=O)Nc2ccc(Oc3ccc(Nc4ccc(F)c(F)c4)cc3C(=O)O)cc2C(=O)O)cc1 [Example 1:9, 2-(4-butoxybenzenesulfonyl-amino)-5-[4-(2-carboxy)(3,4-di-fluorophenylamino)phenoxy]-benzoic acid] | – | 100 |
| CCCCc1ccc(C(=O)Nc2ccc(Oc3ccc(NS(=O)(=O)c4ccccc4)c(C(=O)O)c3)cc2C(=O)O)cc1 [Example 7:2] | – | 100 |
| CC(C)(C)c1ccc(C(=O)Nc2ccc(Oc3ccc(NC(=O)c4ccc(Cl)cc4Cl)c(C(=O)O)c3)cc2)cc1 [Example 8:1, 5-(4-(4-tert-butylbenzamido)-phenoxy)-2-(2,4-dichlorobenz-amido)benzoic acid] | – | 100 |
| CC(C)(C)c1ccc(C(=O)Nc2ccc(Oc3ccc(NC(=O)c4ccccc4Cl)c(C(=O)O)c3)cc2)cc1 [Example 8:15, 5-[4-(4-tert-Butylbenzoyl-amino)phenoxy]-2-(2-chloro-benzoylino)benzoic acid] | – | 98 |
| CCCCOc1ccc(S(=O)(=O)Nc2ccc(Oc3ccc(NC(=O)c4ccccc4)cc3)cc2/C=C/C(=O)O)cc1 [Example 22:1, (E)-3-[5-(4-Benzoylaminophenoxy)-2-(4-butoxybenzenesulfonylamino)-phenyl]acrylic acid] | 96 | – |
| CCCCOc1ccc(S(=O)(=O)Nc2ccc(Oc3ccc(NC(=O)c4ccccc4)cc3)cc2CCC(=O)O)cc1 [Example 22:2, 3-[5-(4-Benzoylaminophenoxy)-2-(4-butoxybenzenesulfonylamino)-phenyl]propionic acid] | 99 | – |
| CCCCOc1ccc(S(=O)(=O)Nc2ccc(Oc3ccc(NC(=O)c4ccc(OC(C)C)cc4)c(C(=O)O)c3)cc2/C=C/C(=O)O)cc1 [Example 22:4, 5-[4-(4-butoxybenzenesulfonyl-amino)-3-((E)-2-carboxyvinyl)-phenoxy]-2-(4-isopropoxy-benzoylamino)benzoic acid] | 100 | – |
| CCCCOc1ccc(S(=O)(=O)Nc2ccc(Oc3ccc(Nc4ccc(F)c(F)c4)cc3)cc2-c2nnn[nH]2)cc1 [Example 32:3, 4-Butoxy-N-[4-[4-(3,4-difluorophenyamino)phenoxy]-2-(tetrazol-5-yl)phenyl]-benzenesulfonamide] | – | 98 |

Now from value to compound, other results behind:

| inhibition at 10 µM [%] | Compound | % inh. [%] |
| --- | --- | --- |
| 93 | O=C(Cc1cccc(Oc2ccc(Nc3ccc(Cl)cc3)c(C(=O)O)c2)c1)NS(=O)(=O)c1ccc(F)c(F)c1 [26:2, 2-(4-Chlorophenylamino)-5-{3-[2-(3,4-difluorobenzenesulfonylamino)-2-oxoethyl]phenoxy}benzoic acid] | – |
| 95 | CCCCc1ccc(C(=O)Nc2ccc(Oc3ccc(NS(=O)(=O)c4ccccc4)c(C(=O)OC)c3)cc2C(=O)O)cc1 [Example 7:1, 2-(4-butylbenzamido)-5-(3-(methoxycarbonyl)-4-(phenylsulfonamido)-phenoxy)benzoic acid] | – |
| 99 | CCCCc1ccc(S(=O)(=O)Nc2ccc(Oc3ccc(NC(=O)c4ccc(C(F)(F)F)cc4)c(C(=O)O)c3)cc2)cc1 [Example 11:1, 5-[4-(4-butylbenzene-sulfonylamino)phenoxy]-2-(4-trifluoromethylbenzoylamino)-benzoic acid] | – |
| 96 | O=C(O)c1cc(Oc2ccc(Nc3ccc(F)cc3)cc2)ccc1Nc1ccc(F)c(F)c1 [Example 12:1, 2-(3,4-difluorophenylamino)-5-(4-(4-fluorophenylamino)-phenoxy)benzoic acid] | – |
| 98 | O=C(O)c1cc(Sc2ccc(Nc3ccc(Cl)cc3)cc2)ccc1Nc1ccc(Cl)cc1 [Example 14:1, 2-(4-chlorophenylamino)-5-[4-(4-chlorophenylamino)-phenylsulfanyl]benzoic acid] | – |
| 99 | O=C(O)c1cc(Sc2ccc(Nc3ccc(F)c(F)c3)cc2)ccc1Nc1ccc(F)c(F)c1 [Example 14:2, 2-(3,4-difluorophenylamino)-5-[4-(3,4-difluoro-phenylamino)-phenylsulfanyl]-benzoic acid] | – |
| 97 | CCCCN(c1ccc(F)c(F)c1)c1ccc(Oc2ccc(Nc3ccc(F)c(F)c3)c(C(=O)O)c2)cc1C(=O)O [Example 24:3, 2-[butyl-(3,4-difluorophenyl)amino]-5-[3-carboxy-4-(3,4-difluorophenyl-amino)phenoxy]benzoic acid] | – |
| 100 | O=C(O)c1cc(Oc2ccc(S(=O)(=O)Nc3ccc(Cl)cc3)cc2)ccc1Nc1ccc(F)c(F)c1 [Example 25:7, 5-[4-(4-Chlorophenylsulfamoyl)-phenoxy]-2-(3,4-difluorophenyl-amino)benzoic acid] | – |
| 94 | O=C(Nc1ccc(Oc2cccc(Oc3ccc(F)c(F)c3)c2)cc1C(=O)O)c1ccc(OC2CCCC2)cc1 [Example 28:2, 2-(4-Cyclopentyloxybenzoylamino)-5-[3-(3,4-difluorophenoxy)phenoxy]benzoic acid] | – |
| 96 | O=C(O)c1cc(Oc2cccc(Oc3ccc(F)c(F)c3)c2)ccc1Nc1ccc(F)c(F)c1 [Example 28:3, 5-[3-(3,4-Difluoro-phenoxy)-phenoxy]-2-(3,4-difluoro-phenylamino)-benzoic acid] | – |
| 100 | O=C(O)c1cc(Oc2ccc(NS(=O)(=O)c3ccc(OC(F)(F)F)cc3)cc2)ccc1NS(=O)(=O)c1ccc(OC(F)(F)F)cc1 [Example 30:3, 2-(4-Trifluoromethoxybenzenesulfonylamino)-5-[4-(4-trifluoromethoxybenzene-sulfonylamino)phenoxy]benzoic acid] | – |
| 97 | O=C(O)c1cc(Oc2ccc(Nc3ccc(F)c(F)c3)cn2)ccc1Nc1ccc(F)c(F)c1 [Example 33:1, 2-(3,4-Difluorophenylamino)-5-[5-(3,4-difluorophenylamino)pyridin-2-yloxy]-benzoic acid] | – |
| 99 | Cc1c(Cl)cccc1S(=O)(=O)Nc1ccc(Oc2ccc(Nc3ccc(F)c(F)c3)c(C(=O)O)c2)cn1 [Example 33:2, 5-(6-(3-Chloro-2-methylphenylsulfonamido)pyridin-3-yloxy)-2-(3,4-difluorophenylamino)benzoic acid] | – |
| 99 | O=C(Nc1ccc(Sc2ccc(NC(=O)c3ccc(Cl)cc3Cl)c(C(=O)O)c2)cc1)c1ccc(C(F)(F)F)cc1 [Example 35:1, 2-(2,4-Dichlorobenzoylamino)-5-[4-(4-trifluoromethylbenzoylamino)phenyl-sulfanyl]benzoic acid] | – |
